Assay in all cases: MIC by broth dilution (NCCLS M7-A2)
What all share (format): cell-based
Holding throughout (settings): 90% growth inhibition

The test system of one test is S. pyogenes iMLS. An excerpt:
(§1) MIC levels for all compound were determinated on panel of susceptible, and resistant Gram positive bacterial strains (S. aureus, S. pneumoniae and S. pyogenes) and on Gram negative strains (E. coli, H. influenzae, […], M. catarrhalis).

Another test has as its system S. pneumoniae.
Source text: as §1

The test system of another test is E. faecalis ATCC 29212.
Source text: as §1

A further test concerns S. pyogenes.
Source text: as §1

The subject of the next test is S. pyogenes M.
Source text: as §1

Another test has as its system H. influenzae ATCC 49247.
Source text: as §1

The test system of test [1] is M. catarrhalis ATCC 23246.
Source text: as §1

The next test concerns E. coli ATCC 25922.
Source text: as §1

The subject of the next test is S. aureus ATCC 13709.
Source text: as §1

Bounds are passed on as bounds.

Take `CCC1OC(=O)C(C)C(OC2CC(C)(OC)C(O)C(C)O2)C(C)C(OC2OC(C)CC(N(C)C)C2O)C(C)(O)CC(C)CN(CCCNC(=S)N(CCC#N)Cc2ccccc2)C(C)C(O)C1(C)O` (stereo not drawn) [Example 30, 9-Deoxo-9-dihydro-9a-N-[N′-(β-cyanoethyl)-N′-benzylthiocarbamoyl-γ-aminopropyl]-9a-aza-9a-homoerithromycin A]: the MIK with S. pyogenes iMLS is 2 µg/mL; in the test on S. pneumoniae, “≦0.125 μg/ml”; with E. faecalis ATCC 29212, 8 µg/mL; with S. pyogenes, “≦0.125 μg/ml”; in the test on S. pyogenes M, 4 µg/mL; in the test with H. influenzae ATCC 49247 it was 2 µg/mL. Also, the MIK amounted to 1 µg/mL in test [1], 16 µg/mL in the test with E. coli ATCC 25922 and 1 µg/mL in the test with S. aureus ATCC 13709.
Regarding `CC[C@H]1OC(=O)[C@H](C)[C@@H](O[C@H]2C[C@@](C)(OC)[C@@H](O)[C@H](C)O2)[C@H](C)[C@@H](O[C@@H]2O[C@H](C)C[C@H](N(C)C)[C@H]2O)[C@](C)(O)C[C@@H](C)CN(CCCNC(=O)N(CCC#N)c2cccc3ccccc23)[C@H](C)[C@@H](O)[C@]1(C)O` [Example 28, 9-Deoxo-9-dihydro-9a-N-[N′-(β-cyanoethyl)-N′-(1-naphtyl)carbamoyl-γ-aminopropyl]-9a-aza-9a-homoerithromycin A], the MIK was 2 µg/mL in the test with S. pyogenes iMLS; “≦0.125 μg/ml” in the test on S. pneumoniae; 4 µg/mL with E. faecalis ATCC 29212; “≦0.125 μg/ml” in the test on S. pyogenes; 4 µg/mL in the test on S. pyogenes M; 1 µg/mL in the test on H. influenzae ATCC 49247. The MIK in [1] was 0.25 µg/mL; in the test with E. coli ATCC 25922 it was 8 µg/mL; with S. aureus ATCC 13709, 1 µg/mL.
Regarding `CC[C@H]1OC(=O)[C@H](C)[C@@H](O[C@H]2C[C@@](C)(OC)[C@@H](O)[C@H](C)O2)[C@H](C)[C@@H](O[C@@H]2O[C@H](C)C[C@H](N(C)C)[C@H]2O)[C@](C)(O)C[C@@H](C)CN(CCCNC(=S)NCc2ccccc2)[C@H](C)[C@@H](O)[C@]1(C)O` [Example 4, 9-Deoxo-9-dihydro-9a-N-(N′-benzylthiocarbamoyl-γ-aminopropyl)-9a-aza-9a-homoerithromycin A], the MIK in the test on S. pyogenes iMLS is 2 µg/mL; with S. pneumoniae, “≦0.125 μg/ml”; with E. faecalis ATCC 29212 it was 8 µg/mL; in the test on S. pyogenes, “≦0.125 μg/ml”; in the test with S. pyogenes M, 4 µg/mL; with H. influenzae ATCC 49247, 2 µg/mL. Also, the MIK in test [1] came out at 1 µg/mL; in the test on E. coli ATCC 25922 it was 16 µg/mL; with S. aureus ATCC 13709, 2 µg/mL.
With `CC[C@H]1OC(=O)[C@H](C)[C@@H](O[C@H]2C[C@@](C)(OC)[C@@H](O)[C@H](C)O2)[C@H](C)[C@@H](O[C@@H]2O[C@H](C)C[C@H](N(C)C)[C@H]2O)[C@](C)(O)C[C@@H](C)CN(CCCNC(=O)NCCc2ccccc2)[C@H](C)[C@@H](O)[C@]1(C)O` [Example 8, 9-Deoxo-9-dihydro-9a-N-[N′-(β-phenylethyl)carbamoyl-γ-aminopropyl]-9a-aza-9a-homoerithromycin A], the MIK with S. pyogenes iMLS was 4 µg/mL; in the test with S. pneumoniae it was “≦0.125 μg/ml”; in the test on E. faecalis ATCC 29212, 16 µg/mL; in the test on S. pyogenes, “≦0.125 μg/ml”; in the test on S. pyogenes M, 8 µg/mL; with H. influenzae ATCC 49247, 2 µg/mL. Further, the values for the MIK (in test [1]; in the test on E. coli ATCC 25922; in the test on S. aureus ATCC 13709) were 1 µg/mL, 32 µg/mL and 1 µg/mL, respectively.
For the molecule “9-Deoxo-9-dihydro-9a-N-[N′-(β-cyanoethyl)-N′-(β-phenylethyl)thiocarbamoyl-γ-aminopropyl]-9a-aza-9a-homoerithromycin A [Example 34]”, the MIK was 4 µg/mL in the test on S. pyogenes iMLS; “≦0.125 μg/ml” in the test on S. pneumoniae; 16 µg/mL with E. faecalis ATCC 29212; “≦0.125 μg/ml” with S. pyogenes; 8 µg/mL with S. pyogenes M; 2 µg/mL with H. influenzae ATCC 49247. Further, the figures for the MIK (in test [1]; in the test on E. coli ATCC 25922; with S. aureus ATCC 13709) were 1 µg/mL, 32 µg/mL and 1 µg/mL, respectively.
Take `CCOC(=O)CNC(=O)NCCCN1CC(C)CC(C)(O)C(OC2OC(C)CC(N(C)C)C2O)C(C)C(OC2CC(C)(OC)C(O)C(C)O2)C(C)C(=O)OC(CC)C(C)(O)C(O)C1C` (stereo not drawn) [Example 9, 9-Deoxo-9-dihydro-9a-N-(N′-ethoxycarbonylmethylcarbamoyl-γ-aminopropyl)-9a-aza-9a-homoerithromycin A]: the MIK with S. pyogenes iMLS was 16 µg/mL; in the test with S. pneumoniae it was “≦0.125 μg/ml”; with E. faecalis ATCC 29212, over 64 µg/mL; with S. pyogenes, “≦0.125 μg/ml”; with S. pyogenes M it was 64 µg/mL; with H. influenzae ATCC 49247 it was 32 µg/mL. In addition, the MIK is 4 µg/mL in test [1], over 64 µg/mL in the test with E. coli ATCC 25922 and 8 µg/mL with S. aureus ATCC 13709.
For `CC[C@H]1OC(=O)[C@H](C)[C@@H](O[C@H]2C[C@@](C)(OC)[C@@H](O)[C@H](C)O2)[C@H](C)[C@@H](O[C@@H]2O[C@H](C)C[C@H](N(C)C)[C@H]2O)[C@](C)(O)C[C@@H](C)CN(CCCNC(=O)N(CCC#N)c2ccc3ccccc3c2)[C@H](C)[C@@H](O)[C@]1(C)O` [Example 38, 9-Deoxo-9-dihydro-9a-N-[N′-(β-cyanoethyl)-N′-(2-naphtyl)carbamoyl-γ-aminopropyl]-9a-aza-9a-homoerithromycin A], the MIK with S. pyogenes iMLS is 2 µg/mL; in the test with S. pneumoniae, “≦0.125 μg/ml”; in the test on E. faecalis ATCC 29212, 8 µg/mL; with S. pyogenes, “≦0.125 μg/ml”; with S. pyogenes M, 8 µg/mL; with H. influenzae ATCC 49247, 2 µg/mL. In addition, the MIK in [1] is 0.5 µg/mL; in the test on E. coli ATCC 25922, 32 µg/mL; in the test on S. aureus ATCC 13709, 1 µg/mL.
As for `CC[C@H]1OC(=O)[C@H](C)[C@@H](O[C@H]2C[C@@](C)(OC)[C@@H](O)[C@H](C)O2)[C@H](C)[C@@H](O[C@@H]2O[C@H](C)C[C@H](N(C)C)[C@H]2O)[C@](C)(O)C[C@@H](C)C(=O)[C@H](C)[C@@H](O)[C@]1(C)O` [Er, erythromycin A, reference compound], the MIK with S. pyogenes iMLS is over 64 µg/mL; with E. faecalis ATCC 29212, 1 µg/mL; in the test with S. pyogenes, 0.25 µg/mL; in the test with S. pyogenes M, 8 µg/mL; in the test on H. influenzae ATCC 49247, 2 µg/mL; with E. coli ATCC 25922, 32 µg/mL.
In the case of `CC[C@H]1OC(=O)[C@H](C)[C@@H](O[C@H]2C[C@@](C)(OC)[C@@H](O)[C@H](C)O2)[C@H](C)[C@@H](O[C@@H]2O[C@H](C)C[C@H](N(C)C)[C@H]2O)[C@](C)(O)C[C@@H](C)CN(CCCNC(=O)Nc2ccc3ccccc3c2)[C@H](C)[C@@H](O)[C@]1(C)O` [Example 12, 9-Deoxo-9-dihydro-9a-N-[N′-(2-naphtyl)carbamoyl-γ-aminopropyl]-9a-aza-9a-homoerithromycin A], the MIK in the test on S. pyogenes iMLS is 2 µg/mL; in the test on S. pneumoniae it was 16 µg/mL; with E. faecalis ATCC 29212, 8 µg/mL; in the test on S. pyogenes it was “≦0.125 μg/ml”; in the test on S. pyogenes M it was 8 µg/mL; in the test with H. influenzae ATCC 49247 it was 2 µg/mL. For the same molecule, the MIK in test [1] stood at 0.5 µg/mL; in the test on E. coli ATCC 25922, 32 µg/mL; in the test on S. aureus ATCC 13709, 8 µg/mL.
“9-Deoxo-9-dihydro-9a-N-{N′-(β-cyanoethyl)-N′-[1-(1-naphtyl)ethyl]carbamoyl-γ-aminopropyl}-9a-aza-9a-homoerithromycin A [Example 36]”: the MIK in the test on S. pyogenes iMLS is 8 µg/mL; in the test on S. pneumoniae, “≦0.125 μg/ml”; with E. faecalis ATCC 29212, 16 µg/mL; with S. pyogenes, “≦0.125 μg/ml”; with S. pyogenes M it was 16 µg/mL; in the test with H. influenzae ATCC 49247, 2 µg/mL. In addition, the MIK stood at 4 µg/mL in test [1], 64 µg/mL with E. coli ATCC 25922 and 2 µg/mL with S. aureus ATCC 13709.
In the case of `CC[C@H]1OC(=O)[C@H](C)[C@@H](O[C@H]2C[C@@](C)(OC)[C@@H](O)[C@H](C)O2)[C@H](C)[C@@H](O[C@@H]2O[C@H](C)C[C@H](N(C)C)[C@H]2O)[C@](C)(O)C[C@@H](C)CN(CCCNC(=O)Nc2cccc3ccccc23)[C@H](C)[C@@H](O)[C@]1(C)O` [Example 2, 9-Deoxo-9-dihydro-9a-N-[N′-(1-naphtyl)carbamoyl-γ-aminopropyl]-9a-aza-9a-homoerithromycin A], the MIK with S. pyogenes iMLS is 2 µg/mL; in the test on S. pneumoniae it was “≦0.125 μg/ml”; in the test on E. faecalis ATCC 29212, 4 µg/mL; in the test with S. pyogenes it was “≦0.125 μg/ml”; in the test with S. pyogenes M it was 4 µg/mL; in the test on H. influenzae ATCC 49247, 1 µg/mL. Also, the MIK in [1] amounted to 0.25 µg/mL; in the test with E. coli ATCC 25922 it was 8 µg/mL; in the test on S. aureus ATCC 13709 it was 0.5 µg/mL.
Turning to `CC[C@H]1OC(=O)[C@H](C)[C@@H](O[C@H]2C[C@@](C)(OC)[C@@H](O)[C@H](C)O2)[C@H](C)[C@@H](O[C@@H]2O[C@H](C)C[C@H](N(C)C)[C@H]2O)[C@](C)(O)C[C@@H](C)CN(CCCNC(=S)NCCCc2ccccc2)[C@H](C)[C@@H](O)[C@]1(C)O` [Example 7, 9-Deoxo-9-dihydro-9a-N-[N′-(3-phenylpropyl)thiocarbamoyl-γ-aminopropyl]-9a-aza-9a-homoerithromycin A], the MIK was 4 µg/mL with S. pyogenes iMLS; “≦0.125 μg/ml” with S. pneumoniae; 16 µg/mL in the test with E. faecalis ATCC 29212; “≦0.125 μg/ml” with S. pyogenes; 8 µg/mL in the test with S. pyogenes M; 2 µg/mL in the test on H. influenzae ATCC 49247. For the same molecule, the figures for the MIK (in test [1]; in the test on E. coli ATCC 25922; in the test with S. aureus ATCC 13709) were 1 µg/mL, 16 µg/mL and 1 µg/mL, respectively.
